# In patent US9115092B2, “Substituted quinazoline and pyrido-pyrimidine derivatives” (Asana Biosciences, LLC, priority 2010, dated 2015):
# Assays:
# [1] = tested on: pS6RP(S235/236), PC3 cells; experiment: In-cell Western assay, pS6RP(S235/236) in PC3 cells; format: cell-based, human; conditions: Homo sapiens, PC-3, In-cell Western
# In short: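 Overnight-seeded PC3 cells were treated 2 h with serially diluted compound, then fixed and immunostained with phospho-specific primary antibodies and Eu-labelled secondary. Time-resolved Eu signal read at 615 nm (ex 340 nm), normalised by Hoechst 33258 staining (ex 355/em 460 nm); IC50 from sigmoidal dose-response fit.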
# PC3 cells = experiment: XTT assay for cell viability, PC3 cells; format: cell-based, human; conditions: Homo sapiens, PC-3, cell viability
# In short: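 PC3 cells seeded at 1000 cells/well, grown 24 h, then exposed to serial dilutions of compound for 96 h. Viability read by XTT dye at 37° C, absorbance 465 nm. EC50 from sigmoidal dose-response fit.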
# [2] = target: T1, PI3Kα (wild-type), P110/P85α (Homo sapiens, UniProt P42336); experiment: PI3 Kinase TR-FRET assay, PI3Kα (wild-type); format: biochemical
# T1 construct: made in house; host or cells: SF9 insect cells
# In short: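 Sf9-expressed His-purified P110/P85α (5 ng) preincubated 60 min RT with compound and PIP2 in buffer with 40 mM MgCl2, 5 mM DTT; reaction started with ATP (PIP2 and ATP both 10 μM), 30 min RT. PIP3 detected by TR-FRET displacement, 665/615 nm ratio; IC50 from dose-response curves.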
# mTOR kinase = target: T2, mTOR kinase (Homo sapiens, UniProt P42345); experiment: mTOR kinase TR-FRET assay; format: biochemical; conditions: read-out: mTO R
# T2 construct: purchased Millipore, USA
# In short: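 Compounds preincubated 60 min with mTOR (5 ng) in HEPES pH 7.5, EGTA, MnCl2; ULight-p70 S6K Thr389 peptide (50 nM) and ATP (20 μM) then added, 60 min at room temperature. EDTA-stopped, Eu-anti-phospho antibody detection by TR-FRET (665/615 nm); IC50 from variable-slope sigmoidal fit.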
# T1 sequence (P42336 whole entry): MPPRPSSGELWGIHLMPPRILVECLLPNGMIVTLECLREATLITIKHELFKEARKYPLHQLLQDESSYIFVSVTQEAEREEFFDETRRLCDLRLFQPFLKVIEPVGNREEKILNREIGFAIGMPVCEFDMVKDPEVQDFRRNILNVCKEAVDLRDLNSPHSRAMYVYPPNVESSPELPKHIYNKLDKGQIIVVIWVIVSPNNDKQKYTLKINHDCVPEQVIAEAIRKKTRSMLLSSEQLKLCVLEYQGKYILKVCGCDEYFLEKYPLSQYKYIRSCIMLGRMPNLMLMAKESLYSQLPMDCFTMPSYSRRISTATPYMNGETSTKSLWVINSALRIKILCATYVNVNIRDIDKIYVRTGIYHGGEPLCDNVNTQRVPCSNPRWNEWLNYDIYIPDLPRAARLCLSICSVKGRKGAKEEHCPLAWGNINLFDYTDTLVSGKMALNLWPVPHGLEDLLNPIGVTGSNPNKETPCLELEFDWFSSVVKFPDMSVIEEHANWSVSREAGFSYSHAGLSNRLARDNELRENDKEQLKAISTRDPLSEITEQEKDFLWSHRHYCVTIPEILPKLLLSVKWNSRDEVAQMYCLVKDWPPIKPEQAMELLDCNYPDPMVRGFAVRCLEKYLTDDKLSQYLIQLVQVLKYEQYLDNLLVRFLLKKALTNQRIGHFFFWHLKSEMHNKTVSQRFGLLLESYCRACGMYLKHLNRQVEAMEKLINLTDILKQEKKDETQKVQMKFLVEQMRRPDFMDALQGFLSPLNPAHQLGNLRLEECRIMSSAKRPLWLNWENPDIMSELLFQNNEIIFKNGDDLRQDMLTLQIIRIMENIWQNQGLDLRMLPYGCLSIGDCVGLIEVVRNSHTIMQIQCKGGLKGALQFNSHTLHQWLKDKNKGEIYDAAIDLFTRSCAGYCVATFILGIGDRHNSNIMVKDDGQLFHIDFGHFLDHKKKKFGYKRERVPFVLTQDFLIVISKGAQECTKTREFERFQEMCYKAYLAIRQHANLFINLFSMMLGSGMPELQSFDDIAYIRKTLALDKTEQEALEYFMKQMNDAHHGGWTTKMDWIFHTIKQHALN
# T1 sequence (P27986 whole entry partner): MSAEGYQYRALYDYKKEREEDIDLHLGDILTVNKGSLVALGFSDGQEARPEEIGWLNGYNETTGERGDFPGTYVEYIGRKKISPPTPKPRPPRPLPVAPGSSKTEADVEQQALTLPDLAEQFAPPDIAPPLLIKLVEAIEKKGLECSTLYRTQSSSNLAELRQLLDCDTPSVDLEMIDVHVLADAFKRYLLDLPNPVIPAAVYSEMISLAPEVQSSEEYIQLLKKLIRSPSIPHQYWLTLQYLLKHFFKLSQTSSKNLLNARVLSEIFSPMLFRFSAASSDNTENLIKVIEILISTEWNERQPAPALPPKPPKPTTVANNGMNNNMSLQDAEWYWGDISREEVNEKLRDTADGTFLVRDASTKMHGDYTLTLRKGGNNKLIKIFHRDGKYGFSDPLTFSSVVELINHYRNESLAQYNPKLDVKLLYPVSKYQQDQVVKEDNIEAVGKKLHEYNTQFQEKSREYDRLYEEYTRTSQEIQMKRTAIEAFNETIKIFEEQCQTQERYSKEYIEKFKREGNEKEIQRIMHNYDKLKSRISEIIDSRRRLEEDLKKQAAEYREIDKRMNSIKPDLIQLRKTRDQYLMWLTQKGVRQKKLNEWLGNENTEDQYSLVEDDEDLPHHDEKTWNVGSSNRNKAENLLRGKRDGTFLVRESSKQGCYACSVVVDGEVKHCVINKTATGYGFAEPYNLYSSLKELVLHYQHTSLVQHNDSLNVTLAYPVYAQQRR
IC50 [1] [nM],IC50 (PC3 cells) [nM],IC50 [2] [nM],IC50 (mTOR kinase) [nM],Structure (SMILES)
201 to 10000,201 to 10000,< 50,< 50,"CC(O)c1ccc(-c2ccc3c(N4CCOCC4)nc(-c4ccc(NC(=O)Nc5ccc(C(=O)N(C)C)cc5)cc4)nc3c2)o1 (centres unmarked) [Example 206, 4-(3-(4-(7-(5-(1-hydroxyethyl)furan-2-yl)-4-morpholino-quinazolin-2-yl)phenyl)ureido)-N,N-dimethyl-benzamide]"
201 to 10000,< 100,< 50,< 50,"CN1CCN(C(=O)c2ccc(NC(=O)Nc3ccc(-c4nc(N5CCOCC5)c5cc(F)c(-c6cccnc6)cc5n4)cc3F)cc2)CC1 [Example 211, 1-(2-fluoro-4-(6-fluoro-4-morpholino-7-(pyridin-3-yl)quinazolin-2-yl)phenyl)-3-(4-(4-methylpiperazine-1-carbonyl)phenyl)urea]"
201 to 10000,< 100,< 50,< 50,"CC(O)c1ccc(-c2ccc3c(N4CCOCC4)nc(-c4ccc(NC(=O)Nc5ccc(C(=O)N(C)C)cc5)c(F)c4)nc3c2)o1 (centres unmarked) [Example 214, 4-(3-(2-fluoro-4-(7-(5-(1-hydroxyethyl)furan-2-yl)-4-morpholino-quinazolin-2-yl)phenyl)ureido)-N,N-dimethyl-benzamide]"
201 to 10000,201 to 10000,50 to 200,50 to 200,"CNC(=O)c1ccc(NC(=O)Nc2ccc(-c3nc(N4CCOCC4)c4ccc(-c5cncnc5)cc4n3)cc2F)cc1 [Example 215, 4-(3-(2-fluoro-4-(4-morpholino-7-(pyrimidin-5-yl)quinazolin-2-yl)phenyl)ureido)-N-methyl-benzamide]"
201 to 10000,201 to 10000,< 50,< 50,"CC(O)c1ccc(-c2cnc3c(N4CCOCC4)nc(-c4ccc(NC(=O)Nc5ccc(C(=O)N(C)C)cc5)cc4)nc3c2)o1 (centres unmarked) [Example 216, 4-(3-(4-(7-(5-(1-hydroxyethyl)furan-2-yl)-4-morpholino-pyrido[3,2-d]pyrimidin-2-yl)phenyl)ureido)-N,N-dimethyl-benzamide]"
201 to 10000,201 to 10000,< 50,< 50,"CN(C)CCNC(=O)c1ccc(NC(=O)Nc2ccc(-c3nc(N4CCOCC4)c4ccc(-c5cncnc5)cc4n3)cc2F)cc1 [Example 217, N-(2-(dimethylamino)ethyl)-4-(3-(2-fluoro-4-(4-morpholino-7-(pyrimidin-5-yl)quinazolin-2-yl)phenyl)ureido)-benzamide]"
201 to 10000,201 to 10000,< 50,< 50,"CN(C)C(=O)c1ccc(NC(=O)Nc2ccc(-c3nc(N4CCOCC4)c4ccc(-c5ccc(C(C)(C)O)o5)cc4n3)cc2)cc1 [Example 222, 4-(3-(4-(7-(5-(2-hydroxypropan-2-yl)furan-2-yl)-4-morpholino-quinazolin-2-yl)phenyl)ureido)-N,N-dimethyl-benzamide]"
201 to 10000,201 to 10000,< 50,< 50,"CN(C)C(=O)c1ccc(NC(=O)Nc2ccc(-c3nc(N4CCOCC4)c4ccc(-c5ccc(C#N)o5)cc4n3)cc2)cc1 [Example 223, 4-(3-(4-(7-(5-cyanofuran-2-yl)-4-morpholino-quinazolin-2-yl)phenyl)ureido)-N,N-dimethyl-benzamide]"
201 to 10000,201 to 10000,< 50,< 50,"CC(=O)c1ccc(-c2ccc3c(N4CCOCC4)nc(-c4ccc(NC(=O)Nc5ccc(C(=O)N(C)C)cc5)cc4)nc3c2)o1 [Example 224, 4-(3-(4-(7-(5-acetylfuran-2-yl)-4-morpholino-quinazolin-2-yl)phenyl)ureido)-N,N-dimethyl-benzamide]"
201 to 10000,201 to 10000,< 50,< 50,"CN(C)C(=O)c1ccc(NC(=O)Nc2ccc(-c3nc(N4CCOCC4)c4ccc(-c5cncnc5)cc4n3)c(F)c2)cc1 [Example 237, 4-(3-(3-fluoro-4-(4-morpholino-7-(pyrimidin-5-yl)quinazolin-2-yl)phenyl)ureido)-N,N-dimethyl-benzamide]"
201 to 10000,201 to 10000,< 50,< 50,"CN(C)C(=O)c1ccc(NC(=O)Nc2ccc(-c3nc(N4CCOCC4)c4ncc(-c5cnn(C)c5)cc4n3)c(F)c2)cc1 [Example 238, 4-(3-(3-fluoro-4-(7-(1-methyl-1H-pyrazol-4-yl)-4-morpholino-pyrido[3,2-d]pyrimidin-2-yl)phenyl)ureido)-N,N-dimethyl-benzamide]"
201 to 10000,201 to 10000,< 50,50 to 200,"CN(C)C(=O)c1ccc(NC(=O)Nc2ccc(-c3nc(N4CCOCC4)c4ccc(-c5cccnc5F)cc4n3)c(F)c2)cc1 [Example 241, 4-(3-(3-fluoro-4-(7-(2-fluoropyridin-3-yl)-4-morpholino-quinazolin-2-yl)phenyl)ureido)-N,N-dimethyl-benzamide]"
201 to 10000,201 to 10000,< 50,< 50,"COc1ncc(-c2ccc3c(N4CCOCC4)nc(-c4ccc(NC(=O)Nc5ccc(C(=O)N(C)C)cc5)cc4F)nc3c2)cn1 [Example 242, 4-(3-(3-fluoro-4-(7-(2-methoxypyrimidin-5-yl)-4-morpholino-quinazolin-2-yl)phenyl)ureido)-N,N-dimethyl-benzamide]"
201 to 10000,201 to 10000,< 50,< 50,"CN(C)C(=O)c1ccc(NC(=O)Nc2ccc(-c3nc(N4CCOCC4)c4ccc(-c5cccnc5)cc4n3)c(F)c2)cc1 [Example 243, 4-(3-(3-fluoro-4-(4-morpholino-7-(pyridin-3-yl)quinazolin-2-yl)phenyl)ureido)-N,N-dimethyl-benzamide]"
201 to 10000,201 to 10000,< 50,< 50,"CN(C)C(=O)c1ccc(NC(=O)Nc2ccc(-c3nc(N4CCOCC4)c4ncc(-c5cccnc5F)cc4n3)c(F)c2)cc1 [Example 244, 4-(3-(3-fluoro-4-(7-(2-fluoropyridin-3-yl)-4-morpholino-pyrido[3,2-d]pyrimidin-2-yl)phenyl)ureido)-N,N-dimethyl-benzamide]"
201 to 10000,201 to 10000,50 to 200,< 50,"Cc1noc(C)c1-c1ccc2c(N3CCOCC3)nc(-c3ccc(NC(=O)Nc4ccc(C(=O)N(C)C)c(F)c4)cc3)nc2c1 [Example 246, 4-(3-(4-(7-(3,5-dimethylisoxazol-4-yl)-4-morpholino-quinazolin-2-yl)phenyl)ureido)-2-fluoro-N,N-dimethyl-benzamide]"
201 to 10000,201 to 10000,50 to 200,50 to 200,"CN(C)C(=O)c1ccc(NC(=O)Nc2ccc(-c3nc(N4CCOCC4)c4ccc(-c5ccco5)cc4n3)c(F)c2)cc1 [Example 247, 4-(3-(3-fluoro-4-(7-(furan-2-yl)-4-morpholino-quinazolin-2-yl)phenyl)ureido)-N,N-dimethyl-benzamide]"
201 to 10000,201 to 10000,201 to 10000,50 to 200,"CN(C)C(=O)c1ccc(NC(=O)Nc2ccc(-c3nc(N4CCOCC4)c4ccc(-c5cccnc5NCCO)cc4n3)cc2)cc1 [Example 283, 4-(3-(4-(7-(2-((2-hydroxyethyl)amino)pyridin-3-yl)-4-morpholine-quinazolin-2-yl)phenyl)ureido)-N,N-dimethyl-benzamide]"
201 to 10000,< 100,< 50,< 50,"CN(C)C(=O)c1ccc(NC(=O)Nc2ccc(-c3nc(N4CCOCC4)c4ccc(CO)cc4n3)cc2)cc1 [Example 285, 4-(3-(4-(7-(hydroxymethyl)-4-morpholino-quinazolin-2-yl)phenyl)ureido)-N,N-dimethyl-benzamide]"
201 to 10000,201 to 10000,< 50,< 50,"CN(C)C1CCN(C(=O)c2ccc(NC(=O)Nc3ccc(-c4nc(N5CCOCC5)c5ccc(C(C)(C)O)cc5n4)cc3)cc2)CC1 [Example 286, 1-(4-(4-(dimethylamino)piperidine-1-carbonyl)phenyl)-3-(4-(7-(2-hydroxypropan-2-yl)-4-morpholino-quinazolin-2-yl)phenyl)urea]"
